Reference: patent US11331289B2, “Antimicrobial composition” (priority 2017, dated 2022)

Columns and labels:
[1] = tested on: S. pseudointermedius n°15 410; experiment: Time-killing curve, broth macrodilution; format: cell-based, Staphylococcus pseudintermedius
Protocol: (§1) The time-killing curve is used to determine the bactericidal or bacteriostatic activity of the antibimicrobial substances. Time-killing curves of Oxyclozanide against canine isolates of Staphylococcus aureus and Staphylococcus pseudintermedius were obtained using broth macrodilution method. After contact of different fixed amounts of Oxyclozanide with an inoculum, viable bacteria are counted immediately after contact and after 1, 3, 6 and 24 hours. Counting is performed on agar medium without antimicrobial substance.
(§2) Results are analyzed by plotting log10 CFU/ml versus time for each tested concentration. Bactericidal activity as defined by 99.9% killing of the inoculum is determined from time-killing curves by noting the presence of a ≥3 log10 decrease in CFU/ml.
(§3) Bacterial strains were sub-cultured twice from one cryobead on Mueller Hinton agar and incubated at 37° C. for 18-24 hours. From the second subcultures, isolated colonies were transferred into tubes containing 2 ml of Mueller Hinton Broth in order to obtain bacterial suspensions at 10^8 CFU/ml, knowing that an optical density of 0.1 at 620 nm corresponds to bacterial suspension at 10^8 CFU/ml. Then, bacterial suspensions were adjusted between 5 10^7 and 1 10^8 CFU/ml by dilution in Mueller Hinton broth.
(§4) For each concentration of Oxyclozanide to be tested, 50 μl of working solution concentrated 100× and […] of inoculum were added to 5 ml of Mueller-Hinton broth. Thus, the range of tested concentrations was from 0.125 to 8 μg/ml and the concentration of micro-organism was between 1 10^6 and 2 10^6 CFU/ml.
(§5) At the same time, a tube without Oxyclozanide was prepared: 50 μl of DMSO and 100 μl of inoculum were added to 5 ml of Mueller-Hinton broth and used as growth control. Tubes were incubated at 36° C. under agitation.
(§6) The numbers of viable bacteria were determined immediately after contact (TO) and after 1, 3, 6 and 24 h of incubation.
(§7) At each time, samples of each tube were taken and dilutions were performed in Mueller-Hinton broth. Then, dilutions were spread on Mueller Hinton agar with spiral plater. After 18 h of incubation at 36° C., counting of colonies was performed with automatic colony counter which determine the concentrations of viable bacteria. The technique employed made it possible to quantify bacterial concentrations as low as 20 CFU/ml.
(§8) Time-killing curves were plotted for each concentration of Oxyclozanide using Microsoft Excel software. The number or surviving bacteria was expressed as log10 CFU/ml. The time-killing curves of each strain represent the decrease in the viable bacteria count as a function of time for the Oxyclozanide concentrations concerned.
(§9) Bactericidal activity as defined by 99.9% killing of the inoculum is determined from time-killing curves by noting the presence of a ≥3 log10 decrease in CFU/ml.

[2] = tested on: S. pseudointermedius n°15 401; experiment: Time-killing curve, broth macrodilution; format: cell-based, Staphylococcus pseudintermedius
Protocol: as §1, §2, §3, §4, §5, §6, §7, §8, §9

[3] = tested on: Staphylococcus pseudintermedius; experiment: Time-killing curves, conclusion over strains; format: cell-based
Protocol: as §1, §2, §9

Staphylococcus aureus = experiment: Time-killing curves, conclusion over strains; format: cell-based
Protocol: as §1, §2, §9

## O=C(Nc1cc(Cl)cc(Cl)c1O)c1c(O)c(Cl)cc(Cl)c1Cl [Oxyclozanide]
[1]; 0.125 μg/ml (MIC), 1 h
  Bacteria reducing rate: 0.2 Δ log10 CFU/ml
[1]; 0.125 μg/ml (MIC), 3 h
  Bacteria reducing rate: 1.1 Δ log10 CFU/ml
[1]; 0.125 μg/ml (MIC), 6 h
  Bacteria reducing rate: 2.3 Δ log10 CFU/ml
[1]; 0.125 μg/ml (MIC), 24 h
  Bacteria reducing rate: 2.9 Δ log10 CFU/ml
[1]; 0.25 μg/ml (2 MIC), 1 h
  Bacteria reducing rate: 0.1 Δ log10 CFU/ml
[1]; 0.25 μg/ml (2 MIC), 3 h
  Bacteria reducing rate: 1.1 Δ log10 CFU/ml
[1]; 0.25 μg/ml (2 MIC), 6 h
  Bacteria reducing rate: 2.3 Δ log10 CFU/ml
[1]; 0.25 μg/ml (2 MIC), 24 h
  Bacteria reducing rate: 1.1 Δ log10 CFU/ml
[1]; 0.5 μg/ml (4 MIC), 1 h
  Bacteria reducing rate: 0.1 Δ log10 CFU/ml
[1]; 0.5 μg/ml (4 MIC), 3 h
  Bacteria reducing rate: 1.1 Δ log10 CFU/ml
[1]; 0.5 μg/ml (4 MIC), 6 h
  Bacteria reducing rate: 2.1 Δ log10 CFU/ml
[1]; 0.5 μg/ml (4 MIC), 24 h
  Bacteria reducing rate: 1.1 Δ log10 CFU/ml
[1]; 1 μg/ml (8 MIC), 1 h
  Bacteria reducing rate: 0.1 Δ log10 CFU/ml
[1]; 1 μg/ml (8 MIC), 3 h
  Bacteria reducing rate: 0.1 Δ log10 CFU/ml
[1]; 1 μg/ml (8 MIC), 6 h
  Bacteria reducing rate: 0.1 Δ log10 CFU/ml
[1]; 1 μg/ml (8 MIC), 24 h
  Bacteria reducing rate: 0.4 Δ log10 CFU/ml
  Viable bacteria count: 6.7 Log10 CFU/ml
[1]; 2 μg/ml (16 MIC), 1 h
  Bacteria reducing rate: 0.0 Δ log10 CFU/ml
[1]; 2 μg/ml (16 MIC), 3 h
  Bacteria reducing rate: −0.1 Δ log10 CFU/ml
[1]; 2 μg/ml (16 MIC), 6 h
  Bacteria reducing rate: −0.9 Δ log10 CFU/ml
[1]; 2 μg/ml (16 MIC), 24 h
  Bacteria reducing rate: −1.7 Δ log10 CFU/ml
  Viable bacteria count: 4.6 Log10 CFU/ml
[1]; 4 μg/ml (32 MIC), 1 h
  Bacteria reducing rate: −0.2 Δ log10 CFU/ml
[1]; 4 μg/ml (32 MIC), 3 h
  Bacteria reducing rate: −0.1 Δ log10 CFU/ml
[1]; 4 μg/ml (32 MIC), 6 h
  Bacteria reducing rate: −1.2 Δ log10 CFU/ml
[1]; 4 μg/ml (32 MIC), 24 h
  Bacteria reducing rate: −3.9 Δ log10 CFU/ml
  Viable bacteria count: 2.4 Log10 CFU/ml
[1]; 8 μg/ml (64 MIC), 1 h
  Bacteria reducing rate: −0.2 Δ log10 CFU/ml
[1]; 8 μg/ml (64 MIC), 3 h
  Bacteria reducing rate: −1.6 Δ log10 CFU/ml
  Viable bacteria count: 4.7 Log10 CFU/ml
[1]; 8 μg/ml (64 MIC), 6 h
  Bacteria reducing rate: −3.7 Δ log10 CFU/ml
  Viable bacteria count: 2.6 Log10 CFU/ml
[1]; 8 μg/ml (64 MIC), 24 h
  Bacteria reducing rate: −5.0 Δ log10 CFU/ml
[2]; 0.125 μg/ml (MIC), 0 h
  Viable bacteria count: 5.9 Log10 CFU/ml
[2]; 0.125 μg/ml (MIC), 1 h
  Bacteria reducing rate: 0.3 Δ log10 CFU/ml
[2]; 0.125 μg/ml (MIC), 3 h
  Bacteria reducing rate: 1.2 Δ log10 CFU/ml
[2]; 0.125 μg/ml (MIC), 6 h
  Bacteria reducing rate: 2.2 Δ log10 CFU/ml
[2]; 0.125 μg/ml (MIC), 24 h
  Bacteria reducing rate: 2.8 Δ log10 CFU/ml
  Viable bacteria count: 8.7 Log10 CFU/ml
[2]; 0.25 μg/ml (2 MIC), 0 h
  Viable bacteria count: 6.0 Log10 CFU/ml
[2]; 0.25 μg/ml (2 MIC), 1 h
  Bacteria reducing rate: 0.1 Δ log10 CFU/ml
[2]; 0.25 μg/ml (2 MIC), 3 h
  Bacteria reducing rate: 0.8 Δ log10 CFU/ml
  Viable bacteria count: 6.8 Log10 CFU/ml
[2]; 0.25 μg/ml (2 MIC), 6 h
  Bacteria reducing rate: 2.2 Δ log10 CFU/ml
[2]; 0.25 μg/ml (2 MIC), 24 h
  Bacteria reducing rate: 1.3 Δ log10 CFU/ml
[2]; 0.5 μg/ml (4 MIC), 0 h
  Viable bacteria count: 6.0 Log10 CFU/ml
[2]; 0.5 μg/ml (4 MIC), 1 h
  Bacteria reducing rate: 0.1 Δ log10 CFU/ml
[2]; 0.5 μg/ml (4 MIC), 3 h
  Bacteria reducing rate: 0.4 Δ log10 CFU/ml
[2]; 0.5 μg/ml (4 MIC), 6 h
  Bacteria reducing rate: 1.6 Δ log10 CFU/ml
[2]; 0.5 μg/ml (4 MIC), 24 h
  Bacteria reducing rate: 1.4 Δ log10 CFU/ml
[2]; 1 μg/ml (8 MIC), 0 h
  Viable bacteria count: 6.0 Log10 CFU/ml
[2]; 1 μg/ml (8 MIC), 1 h
  Bacteria reducing rate: 0.1 Δ log10 CFU/ml
[2]; 1 μg/ml (8 MIC), 3 h
  Bacteria reducing rate: 0.0 Δ log10 CFU/ml
  Viable bacteria count: 6.0 Log10 CFU/ml
[2]; 1 μg/ml (8 MIC), 6 h
  Bacteria reducing rate: 0.2 Δ log10 CFU/ml
[2]; 1 μg/ml (8 MIC), 24 h
  Bacteria reducing rate: 0.7 Δ log10 CFU/ml
  Viable bacteria count: 6.7 Log10 CFU/ml
[2]; 2 μg/ml (16 MIC), 0 h
  Viable bacteria count: 6.0 Log10 CFU/ml
[2]; 2 μg/ml (16 MIC), 1 h
  Bacteria reducing rate: −0.1 Δ log10 CFU/ml
  Viable bacteria count: 5.9 Log10 CFU/ml
[2]; 2 μg/ml (16 MIC), 3 h
  Bacteria reducing rate: −0.1 Δ log10 CFU/ml
  Viable bacteria count: 5.9 Log10 CFU/ml
[2]; 2 μg/ml (16 MIC), 6 h
  Bacteria reducing rate: 0.3 Δ log10 CFU/ml
[2]; 2 μg/ml (16 MIC), 24 h
  Bacteria reducing rate: −0.1 Δ log10 CFU/ml
  Viable bacteria count: 5.9 Log10 CFU/ml
[2]; 4 μg/ml (32 MIC), 0 h
  Viable bacteria count: 5.9 Log10 CFU/ml
[2]; 4 μg/ml (32 MIC), 1 h
  Bacteria reducing rate: 0.1 Δ log10 CFU/ml
  Viable bacteria count: 6.0 Log10 CFU/ml
[2]; 4 μg/ml (32 MIC), 3 h
  Bacteria reducing rate: 0.0 Δ log10 CFU/ml
  Viable bacteria count: 5.9 Log10 CFU/ml
[2]; 4 μg/ml (32 MIC), 6 h
  Bacteria reducing rate: −0.7 Δ log10 CFU/ml
[2]; 4 μg/ml (32 MIC), 24 h
  Bacteria reducing rate: −3.4 Δ log10 CFU/ml
  Viable bacteria count: 2.5 Log10 CFU/ml
[2]; 8 μg/ml (64 MIC), 0 h
  Viable bacteria count: 6.0 Log10 CFU/ml
[2]; 8 μg/ml (64 MIC), 1 h
  Bacteria reducing rate: −0.4 Δ log10 CFU/ml
  Viable bacteria count: 5.6 Log10 CFU/ml
[2]; 8 μg/ml (64 MIC), 3 h
  Bacteria reducing rate: −2.7 Δ log10 CFU/ml
  Viable bacteria count: 3.3 Log10 CFU/ml
[2]; 8 μg/ml (64 MIC), 6 h
  Bacteria reducing rate: −4.4 Δ log10 CFU/ml
[2]; 8 μg/ml (64 MIC), 24 h
  Bacteria reducing rate: −4.7 Δ log10 CFU/ml
[3]
  Pharmacodynamic profile: concentration-dependant
[3]; concentration of 4 μg/ml
  Contact time at which bactericidal effect (≥3 log10 decrease in CFU/ml) is observed: 24 hours
[3]; concentration of 8 μg/ml
  Contact time at which bactericidal effect (≥3 log10 decrease in CFU/ml) is observed: 6 to 24 hours
Staphylococcus aureus
  Pharmacodynamic profile: concentration-dependant
Staphylococcus aureus; concentration of 4 μg/ml
  Contact time at which bactericidal effect (≥3 log10 decrease in CFU/ml) is observed: 24 hours
Staphylococcus aureus; concentration of 8 μg/ml
  Contact time at which bactericidal effect (≥3 log10 decrease in CFU/ml) is observed: 6 to 24 hours
